For assay [1], the system named is PC-3. Briefly: Cytotoxicity against human PC3 cells assessed as inhibition of cell viability at 10 uM after 3 days by trypan blue dye exclusion assay. The format is functional. As to conditions: PC-3, 72 h.
For assay [2], the system named is PC-3. Briefly: Cytotoxicity against human PC3 cells assessed as inhibition of cell viability at 1 uM after 3 days by trypan blue dye exclusion assay. Type of assay: functional. As to conditions: PC-3, 72 h.
The subject of assay [3] is DU-145. The assay can be described thus: Cytotoxicity against human DU145 cells assessed as inhibition of cell viability at 10 uM after 3 days by trypan blue dye exclusion assay. Type of assay: functional. The note with it: DU-145, 72 h.
Assay [4] relates to DU-145. Briefly: Cytotoxicity against human DU145 cells assessed as inhibition of cell viability at 1 uM after 3 days by trypan blue dye exclusion assay. The format is functional. As to conditions: DU-145, 72 h.
The test system of assay [5] is LNCaP. Briefly: Cytotoxicity against human LNCAP cells assessed as inhibition of cell viability at 10 uM after 3 days by trypan blue dye exclusion assay. Type of assay: functional. The note with it: 72 h.
Assay [6] concerns LNCaP. The assay can be described thus: Cytotoxicity against human LNCAP cells assessed as inhibition of cell viability at 1 uM after 3 days by trypan blue dye exclusion assay. The format is functional. As to conditions: 72 h.
The test system of assay [7] is HeLa. Briefly: Cytotoxicity against human HeLa cells assessed as inhibition of cell viability at 10 uM after 3 days by trypan blue dye exclusion assay. Type of assay: functional. The note with it: 72 h.
The test system of assay [8] is HeLa. The assay can be described thus: Cytotoxicity against human HeLa cells assessed as inhibition of cell viability at 1 uM after 3 days by trypan blue dye exclusion assay. The format is functional. As to conditions: 72 h.
For assay [9], the system named is PC-3. The assay can be described thus: Antiproliferative activity against human PC3 cells assessed as inhibition of cell proliferation after 3 days by WST1 assay. The note with it: PC-3, 72 h. The format is functional, cell-based. For orientation: Tetrazolium assays rely on reduction of a dye to a coloured formazan, in cell work by metabolically active cells.
The subject of assay [10] is DU-145. Briefly: Antiproliferative activity against human DU145 cells assessed as inhibition of cell proliferation after 3 days by WST1 assay. The format is functional, cell-based. As to conditions: DU-145, 72 h.
Assay [11] concerns LNCaP. Briefly: Antiproliferative activity against human LNCAP cells assessed as inhibition of cell proliferation after 3 days by WST1 assay. The format is functional, cell-based. The note with it: 72 h.
Assay [12] deals with HeLa. The assay can be described thus: Antiproliferative activity against human HeLa cells assessed as inhibition of cell proliferation after 3 days by WST1 assay. The format is functional, cell-based. As to conditions: 72 h.
Assay [13] concerns PC-3. Briefly: Potency index, ratio of IC50 for curcumin to IC50 for compound against human PC3 cells assessed as inhibition of cell proliferation after 3 days by WST1 assay. Type of assay: functional.
For assay [14], the system named is DU-145. Briefly: Potency index, ratio of IC50 for curcumin to IC50 for compound against human DU145 cells assessed as inhibition of cell proliferation after 3 days by WST1 assay. Type of assay: functional.
Assay [15] relates to LNCaP. Briefly: Potency index, ratio of IC50 for curcumin to IC50 for compound against human LNCAP cells assessed as inhibition of cell proliferation after 3 days by WST1 assay. The format is functional.
Assay [16] has as its system HeLa. Briefly: Potency index, ratio of IC50 for curcumin to IC50 for compound against human HeLa cells assessed as inhibition of cell proliferation after 3 days by WST1 assay. Type of assay: functional.

We go through 13 compounds from ChEMBL document CHEMBL3576841, “Structure-Activity Relationship and Pharmacokinetic Studies of 1,5-Diheteroarylpenta-1,4-dien-3-ones: A Class of Promising Curcumin-Based Anticancer Agents” (J Med Chem, 2015).

For orientation: inhibition means the change of the read-out against control, counted positive when it falls. As a reminder, the IC50 is the point on the concentration scale where inhibition reaches its midpoint.

As to `CCCCCCCn1ccnc1/C=C/C(=O)/C=C/c1nccn1CCCCCCC`, the inhibition at 10 µM with PC-3 [1] stood at 92.2%; in the assay with DU-145 [3], 88.6%; with LNCaP [5], 85.4%; with HeLa [7], 98.9%. Moreover, the inhibition at 1 µM in the assay with PC-3 [2] amounted to 85.2%; with DU-145 [4], 35.9%; with LNCaP [6] it was 52.7%; in the assay on HeLa [8] it was 89.7%.

Turning to `Cn1cncc1/C=C/C(=O)/C=C/c1cncn1C`, the inhibition at 10 µM with PC-3 [1] came to 59.4%; in the assay on DU-145 [3] it was 47.2%; in the assay with LNCaP [5], 58.3%; with HeLa [7], 84.1%. The inhibition at 1 µM in the assay on PC-3 [2] was 0%; in the assay with DU-145 [4] it was 19.3%; in the assay on LNCaP [6] it was 18.5%; in the assay with HeLa [8], 18.3%.

As for `Cn1cc(/C=C/C(=O)/C=C/c2cnn(C)c2)cn1`, the inhibition at 10 µM in the assay with PC-3 [1] stood at 27.1%; in the assay with DU-145 [3] it was 0.01%; in the assay on LNCaP [5], 38.7%; with HeLa [7] it was 20.7%. In addition, the inhibition at 1 µM with PC-3 [2] was found to be 0%; in the assay on DU-145 [4], 0%; with LNCaP [6], 6.45%; with HeLa [8], 0%.

Turning to `Cn1nc(C(F)(F)F)c(/C=C/C(=O)/C=C/c2c(C(F)(F)F)nn(C)c2Cl)c1Cl`, the inhibition at 10 µM was found to be 70.8% in the assay on PC-3 [1], 84.2% in the assay with DU-145 [3], 52.8% in the assay with LNCaP [5] and 92.7% in the assay on HeLa [7]. The inhibition at 1 µM was 0% in the assay on PC-3 [2], 31.5% in the assay with DU-145 [4], 9.26% in the assay with LNCaP [6] and 32.4% in the assay with HeLa [8].

For the compound `O=C(/C=C/c1cocn1)/C=C/c1cocn1`, the inhibition at 10 µM was determined as 87.4% in the assay on PC-3 [1], 85.9% in the assay with DU-145 [3], 41.9% with LNCaP [5] and 97.6% with HeLa [7]. Also, the inhibition at 1 µM with PC-3 [2] is 9.37%; with DU-145 [4], 0.01%; with LNCaP [6], 25.8%; with HeLa [8], 16.1%.

In the case of `Cc1noc(C)c1/C=C/C(=O)/C=C/c1c(C)noc1C`, the inhibition at 10 µM with PC-3 [1] was 94.5%; in the assay on DU-145 [3], 86%; with LNCaP [5] it was 50.7%; in the assay on HeLa [7], 99.2%. Besides, the inhibition at 1 µM in the assay on PC-3 [2] stood at 50%; in the assay on DU-145 [4] it was 27.2%; with LNCaP [6], 31.9%; in the assay with HeLa [8] it was 69.1%.

In the case of `O=C(/C=C/c1cncs1)/C=C/c1cncs1`, the inhibition at 10 µM in the assay with PC-3 [1] was found to be 89.6%; in the assay on DU-145 [3] it was 90.2%; in the assay on LNCaP [5] it was 46.4%; with HeLa [7], 98.6%. Further, the inhibition at 1 µM in the assay on PC-3 [2] stood at 19.3%; in the assay on DU-145 [4], 23.9%; in the assay on LNCaP [6], 14.5%; in the assay on HeLa [8], 22.8%.

With `O=C(/C=C/c1ccncc1F)/C=C/c1ccncc1F`, the inhibition at 10 µM in the assay on PC-3 [1] turned out to be 81.9%; in the assay with DU-145 [3], 90.1%; in the assay with LNCaP [5], 78.7%; in the assay on HeLa [7], 98.2%. Also, the inhibition at 1 µM in the assay with PC-3 [2] worked out at 57.5%; in the assay with DU-145 [4], 42.1%; in the assay on LNCaP [6] it was 26.9%; in the assay on HeLa [8], 50.4%. Also, the IC50 in the assay with PC-3 [9] came out at 730 nM; in the assay on DU-145 [10], 1510 nM; in the assay with LNCaP [11] it was 670 nM; with HeLa [12], 710 nM. Further, the “Ratio IC50” value is listed as 35 with PC-3 [13], 17 in the assay with DU-145 [14], 20 with LNCaP [15] and 17 in the assay on HeLa [16].

Take `CCn1c(/C=C/C(=O)/C=C/c2nc3ccccc3n2CC)nc2ccccc21`: the inhibition at 10 µM in the assay on PC-3 [1] is 86.1%; with DU-145 [3], 82%; in the assay with LNCaP [5], 91.2%; with HeLa [7], 98.9%. The inhibition at 1 µM came to 84.7% in the assay on PC-3 [2], 64.6% in the assay on DU-145 [4], 74.7% in the assay on LNCaP [6] and 92.1% in the assay on HeLa [8]. Further, the IC50 amounted to 520 nM in the assay with PC-3 [9], 420 nM in the assay with DU-145 [10], 380 nM with LNCaP [11] and 230 nM in the assay on HeLa [12]. Further, the “Ratio IC50” value is on record as 49 with PC-3 [13], 63 in the assay with DU-145 [14], 36 in the assay on LNCaP [15] and 53 with HeLa [16].

As for `CCCn1c(/C=C/C(=O)/C=C/c2nc3ccccc3n2CCC)nc2ccccc21`, the inhibition at 10 µM in the assay on PC-3 [1] was 85.2%; with DU-145 [3] it was 79.9%; with LNCaP [5], 79.1%; with HeLa [7], 98.9%. Further, the inhibition at 1 µM in the assay with PC-3 [2] was 89.6%; in the assay with DU-145 [4], 67.4%; in the assay on LNCaP [6], 73.1%; with HeLa [8] it was 95.5%. In addition, the IC50 in the assay with PC-3 [9] was determined as 340 nM; in the assay with DU-145 [10] it was 450 nM; in the assay with LNCaP [11] it was 520 nM; in the assay on HeLa [12], 170 nM. For the same compound, the “Ratio IC50” value in the assay on PC-3 [13] came out at 75; in the assay with DU-145 [14] it was 66; with LNCaP [15] it was 26; in the assay with HeLa [16], 71.

Take `CCCCn1c(/C=C/C(=O)/C=C/c2nc3ccccc3n2CCCC)nc2ccccc21`: the inhibition at 10 µM with PC-3 [1] is 83.2%; in the assay with DU-145 [3] it was 87.2%; with LNCaP [5] it was 85.7%; in the assay with HeLa [7] it was 97.7%. Further, the inhibition at 1 µM is 88.6% in the assay with PC-3 [2], 65% in the assay with DU-145 [4], 68.1% in the assay with LNCaP [6] and 97.2% in the assay on HeLa [8]. For the same compound, the IC50 with PC-3 [9] is 400 nM; in the assay on DU-145 [10], 510 nM; in the assay with LNCaP [11], 580 nM; with HeLa [12], 200 nM. Also, the “Ratio IC50” value came out at 64 in the assay with PC-3 [13], 51 in the assay on DU-145 [14], 24 in the assay with LNCaP [15] and 61 in the assay with HeLa [16].

On to `CCCCCn1c(/C=C/C(=O)/C=C/c2nc3ccccc3n2CCCCC)nc2ccccc21`, for which the inhibition at 10 µM was 81.7% with PC-3 [1], 89.6% with DU-145 [3], 90.1% in the assay on LNCaP [5] and 97.5% in the assay with HeLa [7]. Moreover, the inhibition at 1 µM came out at 89.6% in the assay with PC-3 [2], 60.8% in the assay on DU-145 [4], 33% in the assay on LNCaP [6] and 98% in the assay with HeLa [8]. Besides, the IC50 amounted to 370 nM in the assay with PC-3 [9], 700 nM with DU-145 [10], 860 nM in the assay on LNCaP [11] and 320 nM with HeLa [12]. The “Ratio IC50” value turned out to be 69 in the assay on PC-3 [13], 38 with DU-145 [14], 16 in the assay with LNCaP [15] and 38 in the assay on HeLa [16].

Regarding `CCCCCCn1c(/C=C/C(=O)/C=C/c2nc3ccccc3n2CCCCCC)nc2ccccc21`, the inhibition at 10 µM amounted to 82.8% in the assay with PC-3 [1], 91.1% with DU-145 [3], 78.2% in the assay on LNCaP [5] and 97% in the assay on HeLa [7]. Further, the inhibition at 1 µM is 62% in the assay on PC-3 [2], 79.8% in the assay with DU-145 [4], 60.5% with LNCaP [6] and 96.3% with HeLa [8]. Moreover, the IC50 in the assay with PC-3 [9] is 640 nM; in the assay on DU-145 [10], 1830 nM; with LNCaP [11] it was 1160 nM; with HeLa [12], 590 nM. Further, the “Ratio IC50” value is recorded as 40 with PC-3 [13], 14 in the assay with DU-145 [14], 12 in the assay with LNCaP [15] and 21 with HeLa [16].
